Assay results as given in US9296698B2, “Amino heteroaryl compounds as beta-secretase modulators and methods of use” (Amgen Inc., priority 2009, dated 2016).
Where two headings read alike, the source gives them in different places.

Key:
[1] = target: BACE 1 (Beta Secretase enzyme) (Homo sapiens, UniProt P56817); assay: In vitro enzymatic BACE FRET assay; type: biochemical
Description: In Vitro Enzymatic BACE FRET (Fluorescence Resonance Energy Transfer) Assay (Enzyme Assay Data in Table 1)
The assay buffer used in this screen is 0.05 M acetate, pH 4.2, 10% DMSO final, 100 uM genapol (which is a nonionic detergent, below its Critical Micelle Concentration). […] The assay is effectively started by the addition of FRET substrate (50 nM) and the combination is incubated for one hour. The FRET assay is terminated with by addition of Tris buffer, which raises the pH to neutrality, and the fluorescence is determined. The FRET substrate is a peptide with commercially available fluorophore and quencher, on opposite sides of the BACE cleavage site.

[2] = test system: Aβ40 in conditioned medium of cells stably expressing Amyloid Precursor Protein (APP); assay: In vitro BACE cell-based assay (HEK cell assay), Aβ40 sandwich ELISA
Description: In Vitro BACE Cell-Based Assay:
The cell-based assay measures inhibition or reduction of Aβ40 in conditioned medium of test compound treated cells expressing amyloid precursor protein.
Cells stably expressing Amyloid Precursor Protein (APP) were plated at a density of 40K cells/well in 96 well plates (Costar). The cells were cultivated for 24 hours at 37° C. and 5% CO2 in DMEM supplemented with 10% FBS. The test compounds were then added to cells in 10-point dose response concentrations with the starting concentration being either 100 μM or 10 μM. The compounds were diluted from stock solutions in DMSO and the final DMSO concentration of the test compounds on cells was 0.1%. After 24 h of incubation with the test compounds the supernatant conditioned media was collected and the Aβ 40 levels were determined using a sandwich ELISA. The IC50 of the compound was calculated from the percent of control or percent inhibition of Aβ 40 as a function of the concentration of the test compound.
The sandwich ELISA to detect Aβ 40 was performed in 96 well microtiter plates, which were pre-treated with goat anti-rabbit IgG (Pierce). The capture and detecting antibody pair that were used to detect Aβ 40 from cell supernatants were affinity purified pAb40 (Biosource) and biotinylated 6E10 (Signet Labs Inc.), respectively. The optimal concentration for the pAb40 antibody was 3 μg/ml in Superblock/TBS (Pierce) that was supplemented with 0.05% Tween 20 (Sigma).
Cellular supernatants were incubated with the capture antibody for 3 h at 4° C., followed by 3 wash steps in TBS-tween (0.05%). The detecting antibody incubation was for 2 h at 4° C., again followed by the wash steps as described previously. The final readout of the ELISA is Time-Resolved Fluorescence (counts per minute) using Delfia reagents Streptavidin-Europium and Enhancement solutions (Perkin Elmer) and the Victor 2 multilabel counter (Perkin Elmer).

[3] = IC50 range symbols, Table 1, read-out: BACE 1 FRET assay
[4] = Homo sapiens, HEK293, 24 h, IC50 range symbols, Table 1, Aβ40, 24 h incubation, read-out: HEK cell assay
[5] = IC50 range symbols, Table 1, Aβ40, 24 h incubation, read-out: HEK cell assay
[6] = bound stated, read-out: IC50 value in the FRET BACE enzyme assay

Chain of BACE 1 (Beta Secretase enzyme) (P56817 46-501, species assumed): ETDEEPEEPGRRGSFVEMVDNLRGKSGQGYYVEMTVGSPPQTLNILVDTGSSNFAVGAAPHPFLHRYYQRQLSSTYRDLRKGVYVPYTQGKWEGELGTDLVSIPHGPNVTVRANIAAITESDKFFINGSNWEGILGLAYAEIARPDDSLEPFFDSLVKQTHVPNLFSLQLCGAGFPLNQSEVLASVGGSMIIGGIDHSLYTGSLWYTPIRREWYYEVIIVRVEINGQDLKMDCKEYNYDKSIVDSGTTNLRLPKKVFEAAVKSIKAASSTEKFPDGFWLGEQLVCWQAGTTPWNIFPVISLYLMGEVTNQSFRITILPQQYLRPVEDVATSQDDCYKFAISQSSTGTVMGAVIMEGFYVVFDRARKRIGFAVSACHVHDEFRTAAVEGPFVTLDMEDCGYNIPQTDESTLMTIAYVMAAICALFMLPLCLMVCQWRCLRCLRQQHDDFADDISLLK

Compound: Cc1ccccc1-c1ccc2nc(N)c(CC(C)C(=O)Nc3ccccc3)cc2c1 (centres unmarked) [Example 51, 3-(2-amino-6-o-tolylquinolin-3-yl)-2-methyl-N-phenylpropanamide]
- IC50 [1, 3]: < 500 nM
- IC50 [2, 4]: 1000 to 5000 nM

Compound: 3-(3-amino-7-o-tolylnaphthalen-2-yl)-2-methyl-N-(pyridin-3-ylmethyl)propanamide [Example 69]
- IC50 [1, 3]: < 500 nM
- IC50 [2, 5]: 500 to 1000 nM

Compound: CC(Cc1cc2cc(-c3cccc(Cl)c3Cl)ccc2nc1N)C(=O)NC1CCOC2(CCC2)C1 (centres unmarked) [Example 161, 3-(2-amino-6-(2,3-dichlorophenyl)quinolin-3-yl)-2-methyl-N-(5-oxaspiro[3.5]nonan-8-yl)propanamide]
- IC50 [1, 3]: < 500 nM
- IC50 [2, 4]: < 500 nM

Compound: Cc1cccnc1-c1ccc2nc(N)c(CC(C)C(=O)NCCC3CCCO3)cc2c1 (centres unmarked) [Example 113, 3-(2-amino-6-(3-methylpyridin-2-yl)quinolin-3-yl)-2-methyl-N-(2-(tetrahydrofuran-2-yl)ethyl)propanamide]
- IC50 [1, 3]: 500 to 1000 nM
- IC50 [2, 4]: 1000 to 5000 nM

Compound: Cc1cccnc1-c1ccc2nc(N)c(CCC(=O)N[C@H](C)c3cccnc3)cc2c1 [Example 132, (R)-3-(2-amino-6-(3-methylpyridin-2-yl)quinolin-3-yl)-N-(1-(pyridin-3-yl)ethyl)propanamide]
- IC50 [1, 3]: 1000 to 5000 nM
- IC50 [2, 4]: > 5000 nM

Compound: C#CC1CC(NC(=O)[C@H](C)Cc2cc3cc(-c4ccccc4C)ccc3nc2N)CCO1 (stereo partly drawn) [Example 160, (R)-3-(2-amino-6-o-tolylquinolin-3-yl)-N-(cis-2-ethynyltetrahydro-2H-pyran-4-yl)-2-methylpropanamide]
- IC50 [1, 3]: < 500 nM
- IC50 [2, 4]: < 500 nM

Compound: Cc1ccccc1-c1cc2cc(CC(C)C(=O)NCc3ccccc3)c(N)nc2cn1 (centres unmarked) [Example 136, 3-(2-amino-6-o-tolyl-1,7-naphthyridin-3-yl)-N-benzyl-2-methylpropanamide]
- IC50 [1, 3]: < 500 nM
- IC50 [1, 6]: < 50 nM
- IC50 [2, 4]: 1000 to 5000 nM

Compound: Cc1ccccc1-c1ccc2nc(N)c(CC(C)C(=O)NC(C)c3ccccc3F)cc2c1 (centres unmarked) [Example 106, 3-(2-amino-6-o-tolylquinolin-3-yl)-N-(1-(2-fluorophenyl)ethyl)-2-methylpropanamide]
- IC50 [1, 3]: < 500 nM
- IC50 [1, 6]: < 50 nM
- IC50 [2, 4]: > 5000 nM

Compound: Cc1cccnc1-c1ccc2nc(N)c(CC(C)C(=O)NCC3CCOCC3)cc2c1 (centres unmarked) [Example 88, 3-(2-amino-6-(3-methylpyridin-2-yl)quinolin-3-yl)-2-methyl-N-((tetrahydro-2H-pyran-4-yl)methyl)propanamide]
- IC50 [1, 3]: < 500 nM
- IC50 [2, 4]: 500 to 1000 nM

Compound: Nc1nc2ccc(-c3ccccc3F)cc2cc1CCC(=O)NCC1CCCCC1 [Example 42, 3-(2-amino-6-(2-fluorophenyl)quinolin-3-yl)-N-(cyclohexylmethyl)propanamide]
- IC50 [1, 3]: < 500 nM
- IC50 [2, 4]: > 5000 nM

Compound: N-(3-fluoro-3-methylbutyl)-2-methyl-3-(6-(3-methylpyridin-2-yl)quinolin-3-yl)propanamide [Example 101]
- IC50 [1, 3]: < 500 nM
- IC50 [2, 5]: < 500 nM

Compound: Cc1ccccc1-c1ccc2nc(N)c(CC(C)C(=O)N[C@H](C)C3CCCCC3)cc2c1 (stereo partly drawn) [Example 47, 3-(2-amino-6-o-tolylquinolin-3-yl)-N-((R)-1-cyclohexylethyl)-2-methylpropanamide]
- IC50 [1, 3]: < 500 nM
- IC50 [2, 4]: 1000 to 5000 nM

Compound: 3-(3-amino-7-o-tolylnaphthalen-2-yl)-N-((R)-1-cyclohexylethyl)propanamide [Example 31]
- IC50 [1, 3]: < 500 nM
- IC50 [2, 5]: > 5000 nM

Compound: Cc1cccnc1-c1ccc2nc(N)c(CC(C)C(=O)NCCC3(C)CC3)cc2c1 (centres unmarked) [Example 102, 3-(2-amino-6-(3-methylpyridin-2-yl)quinolin-3-yl)-2-methyl-N-(2-(1-methylcyclopropyl)ethyl)propanamide]
- IC50 [1, 3]: < 500 nM
- IC50 [2, 4]: < 500 nM

Compound: Cc1ccccc1-c1cc2cc(CC(C)C(=O)NCCC(C)(C)C)c(N)nc2cn1 (centres unmarked) [Example 138, 3-(2-amino-6-o-tolyl-1,7-naphthyridin-3-yl)-N-(3,3-dimethylbutyl)-2-methylpropanamide]
- IC50 [1, 3]: < 500 nM
- IC50 [1, 6]: < 50 nM
- IC50 [2, 4]: < 500 nM

Compound: Cc1ccccc1-c1ccc2nc(N)c(CC(C)C(=O)NC3CCCN(C)C3)cc2c1 (centres unmarked) [Example 64, 3-(2-amino-6-o-tolylquinolin-3-yl)-2-methyl-N-(1-methylpiperidin-3-yl)propanamide]
- IC50 [1, 3]: < 500 nM
- IC50 [2, 4]: < 500 nM

Compound: Cc1ncccc1-c1ccc2nc(N)c(CCC(=O)NCC3CCCCC3)cc2c1 [Example 38, 3-(2-amino-6-(2-methylpyridin-3-yl)quinolin-3-yl)-N-(cyclohexylmethyl)propanamide]
- IC50 [1, 3]: 500 to 1000 nM
- IC50 [2, 4]: > 5000 nM

Compound: Nc1nc2ccc(-c3ccc(F)cc3)cc2cc1CCC(=O)NCC1CCCCC1 [Example 65, 3-(2-amino-6-(4-fluorophenyl)quinolin-3-yl)-N-(cyclohexylmethyl)propanamide]
- IC50 [1, 3]: < 500 nM
- IC50 [2, 4]: > 5000 nM

Compound: COc1ccccc1C(C)NC(=O)C(C)Cc1cc2cc(-c3ccccc3C)ccc2nc1N (centres unmarked) [Example 104, 3-(2-amino-6-o-tolylquinolin-3-yl)-N-(1-(2-methoxyphenyl)ethyl)-2-methylpropanamide]
- IC50 [1, 3]: < 500 nM
- IC50 [2, 4]: 1000 to 5000 nM

Compound: Cc1cccnc1-c1ccc2nc(N)c(CC(C)C(=O)NC[C@H]3CCCOC3)cc2c1 (stereo partly drawn) [Example 86, 3-(2-amino-6-(3-methylpyridin-2-yl)quinolin-3-yl)-2-methyl-N-(((R)-tetrahydro-2H-pyran-3-yl)methyl)propanamide]
- IC50 [1, 3]: < 500 nM
- IC50 [2, 4]: < 500 nM

Compound: Cc1cccnc1-c1ccc2nc(N)c(CC(C)C(=O)NCC(F)(F)F)cc2c1 (centres unmarked) [Example 110, 3-(2-amino-6-(3-methylpyridin-2-yl)quinolin-3-yl)-2-methyl-N-(2,2,2-trifluoroethyl)propanamide]
- IC50 [1, 3]: 500 to 1000 nM
- IC50 [2, 4]: 500 to 1000 nM

Compound: CC(Cc1cc2cc([C@H]3C[C@H]3C)ccc2nc1N)C(=O)NCCC(C)(C)C (stereo partly drawn) [Example 121, 3-(2-amino-6-((1S,2R)-2-methylcyclopropyl)quinolin-3-yl)-N-(3,3-dimethylbutyl)-2-methylpropanamide]
- IC50 [1, 3]: 500 to 1000 nM
- IC50 [2, 4]: > 5000 nM

Compound: 3-(3-amino-7-o-tolylnaphthalen-2-yl)-N-(1-(pyridin-2-yl)ethyl)propanamide [Example 56]
- IC50 [1, 3]: < 500 nM
- IC50 [2, 5]: 1000 to 5000 nM

Compound: Cc1ccccc1-c1cc2cc(CCC(=O)NCC3CCCCC3)c(N)nc2cc1C [Example 95, 3-(2-amino-7-methyl-6-(2-methylphenyl)-3-quinolinyl)-N-(cyclohexylmethyl)propanamide]
- IC50 [1, 3]: < 500 nM
- IC50 [2, 4]: > 5000 nM

Compound: Cc1ccccc1-c1ccc2nc(N)c(CCC(=O)NCC(C)(C)C)cc2c1 [Example 21, 3-(2-amino-6-o-tolylquinolin-3-yl)-N-neopentylpropanamide]
- IC50 [1, 3]: < 500 nM
- IC50 [2, 4]: > 5000 nM

Compound: Cc1ccccc1-c1ccc2nc(N)c(C[C@@H](C)C(=O)NCc3ccncn3)cc2c1 [Example 84, (R)-3-(2-amino-6-o-tolylquinolin-3-yl)-2-methyl-N-(pyrimidin-4-ylmethyl)propanamide]
- IC50 [1, 3]: < 500 nM
- IC50 [1, 6]: < 50 nM
- IC50 [2, 4]: < 500 nM

Compound: CC(Cc1cc2cc(-c3ncccc3CCN3CCN(C)CC3)ccc2nc1N)C(=O)NCCC(C)(C)C (centres unmarked) [Example 124, 3-(2-amino-6-(3-(2-(4-methylpiperazin-1-yl)ethyl)pyridin-2-yl)quinolin-3-yl)-N-(3,3-dimethylbutyl)-2-methylpropanamide]
- IC50 [1, 3]: 500 to 1000 nM
- IC50 [2, 4]: < 500 nM

Compound: CC(Cc1cc2cc(-c3ccccc3CN(C)C)ccc2nc1N)C(=O)NCC1CCCCC1 (centres unmarked) [Example 108, 3-(2-amino-6-(2-((dimethylamino)methyl)phenyl)quinolin-3-yl)-N-(cyclohexylmethyl)-2-methylpropanamide]
- IC50 [1, 3]: < 500 nM
- IC50 [2, 4]: < 500 nM
- IC50 ([2]; Homo sapiens, HEK293, bound stated in text, read-out: IC50 value in the BACE cell-based in-vitro assay): < 100 nM

Compound: Cc1ccccc1-c1ccc2nc(N)c(CCC(=O)NCc3ccnnc3)cc2c1 [Example 139, 3-(2-amino-6-o-tolylquinolin-3-yl)-N-(pyridazin-4-ylmethyl)propanamide]
- IC50 [1, 3]: 1000 to 5000 nM
- IC50 [2, 4]: > 5000 nM

Compound: Cc1ccccc1-c1ccc2nc(N)c(CC(C)C(=O)NCC3CCOC3)cc2c1 (centres unmarked) [Example 91, 3-(2-amino-6-o-tolylquinolin-3-yl)-2-methyl-N-((tetrahydrofuran-3-yl)methyl)propanamide]
- IC50 [1, 3]: < 500 nM
- IC50 [2, 4]: 1000 to 5000 nM
